Results on 17 compounds are retold here after patent publication US9956293B2, “Targeted therapeutics” (Madrigal Pharmaceuticals, Inc., priority 2014, dated 2018).

The first assay concerns HER2. In words: HER2 degradation assay with BT-474 cell line (Example 12, FACS). The class given is cell-based. To be noted: Homo sapiens, BT-474; SDC-TRAPs of the 41st table. The text has this: HER2 Degradation Assay with BT-474 Cell Line
HER2 has emerged as a key target for anticancer drugs due to its intrinsic involvement in the phosphatidylinositol-3-kinase-Akt/protein kinase B (PI3K-Akt) and the mitogen-activated protein kinase (MAPK) pathways, both of which suppress apoptosis and promote tumor cell survival, gene transcription, angiogenesis, cellular proliferation, migration, mitosis, and differentiation. The degradation of HER2 is a measure of efficacy of anticancer therapeutics that target Hsp90. Accordingly, the SDC-TRAP molecules of the invention that comprise a binding moiety that binds Hsp90 were tested in the following HER2 degradation assay.
BT-474 cells (human breast cancer cell line ATCC HTB-20) were obtained from ATCC and seeded into 12-well tissue culture plates at 0.2×10^6/1.8 mL/well. […] Each test compound was titrated in 4-fold dilutions from 5 μM to 78 nM with DMSO and 200 μL of the titration was added to each well of the cell plate. The DMSO final concentration was 0.2%. Cells were incubated overnight at 37° C. in 5% CO2.
Media was decanted from the plate, cells were washed 1× in PBS. 400 μL trypsin (EDTA) per well was added, and the cells were incubated for 2 to 3 minutes. Cells were collected into FACS tubes containing 1 ml culture medium to neutralize the trypsin and were centrifuged for 5 minutes at 1200 rpm. Supernatant was decanted and the cells were resuspended in 5 μL FITC (anti HER2/nu)/200 μL staining buffer (1×PBS+1% FBS+0.05% Sodium Azide)/tube. Controls were […] IgG isotype control and staining buffer only. Tubes were incubated for 30 minutes in the dark at room temperature. 1 mL staining buffer was added to each tube and the tubes were centrifuged for 6 minutes at 1200 rpm. The supernatant was decanted and 300 μL staining buffer was added to each tube, which was store at 4° C. for FACS (cytometer) analysis. The cytometer readout was normalized and the potency of each compound is evaluated with IC50 calculated with XLfit™ software.
The compound `CC(C)c1cc(-c2nnc(O)n2-c2ccc3c(ccn3CCC3CCN(C(=O)c4ccc(CCc5c[nH]c6nc(N)[nH]c(=O)c56)cc4)CC3)c2)c(O)cc1O` [SDC-TRAP-0130, 2-amino-5-(4-(4-(2-(5-(3-(2,4-dihydroxy-5-isopropylphenyl)-5-hydroxy-4H-1,2,4-triazol-4-yl)-1H-indol-1-yl)ethyl)piperidine-1-carbonyl)phenethyl)-3H-pyrrolo[2,3-d]pyrimidin-4(7H)-one] gave an IC50 of 1.83 µM.

Still in this assay, the particulars now being: Homo sapiens; BT-474 cells.
On to `CC(C)c1cc(-c2nnc(O)n2-c2ccc(CC3CCN(C(=O)COC(=O)Nc4cccc5c4CN(C4CCC(=O)NC4=O)C5=O)CC3)cc2)c(O)cc1O` (centres unmarked) [SDC-TRAP-0131, 2-(4-(4-(3-(2,4-dihydroxy-5-isopropylphenyl)-5-hydroxy-4H-1,2,4-triazol-4-yl)benzyl)piperidin-1-yl)-2-oxoethyl(2-(2,6-dioxopiperidin-3-yl)-1-oxoisoindolin-4-yl)carbamate], for which the IC50 was above 5 µM.
Turning to `CC(C)c1cc(-c2nnc(O)n2-c2ccc(CC(=O)N(C)CCCOC(=O)Nc3cccc4c3CN(C3CCC(=O)NC3=O)C4=O)cc2)c(O)cc1O` (centres unmarked) [SDC-TRAP-0132, 3-(2-(4-(3-(2,4-dihydroxy-5-isopropylphenyl)-5-hydroxy-4H-1,2,4-triazol-4-yl)phenyl)-N-methylacetamido)propyl(2-(2,6-dioxopiperidin-3-yl)-1-oxoisoindolin-4-yl)carbamate], the IC50 is above 5 µM.
Same read-out and setting: the result for `CCNC(=O)c1nnc(-c2cc(C(C)C)c(O)cc2O)n1-c1ccc(C(=O)N(C)CCOC(=O)Nc2cccc3c2CN(C2CCC(=O)NC2=O)C3=O)cc1` (centres unmarked) [SDC-TRAP-0133, 2-(4-(3-(2,4-dihydroxy-5-isopropylphenyl)-5-(ethylcarbamoyl)-4H-1,2,4-triazol-4-yl)-N-methylbenzamido)ethyl(2-(2,6-dioxopiperidin-3-yl)-1-oxoisoindolin-4-yl)carbamate] reads above 10 µM; that for `CCNC(=O)c1nnc(-c2cc(C(C)C)c(O)cc2O)n1-c1ccc(CN2CCC(C(=O)N3CCC(n4cc(-c5cnc(N)c(O[C@H](C)c6c(Cl)ccc(F)c6Cl)c5)cn4)CC3)CC2)cc1` [SDC-TRAP-0134, (R)-4-(4-((4-(4-(4-(6-amino-5-(1-(2,6-dichloro-3-fluorophenyl)ethoxy)pyridin-3-yl)-1H-pyrazol-1-yl)piperidine-1-carbonyl)piperidin-1-yl)methyl)phenyl)-5-(2,4-dihydroxy-5-isopropylphenyl)-N-ethyl-4H-1,2,4-triazole-3-carboxamide], 0.077 µM; that for `CCNC(=O)c1nnc(-c2cc(C(C)C)c(O)cc2O)n1-c1ccc(C(=O)N(C)CCCOC(=O)Nc2cccc3c2CN(C2CCC(=O)NC2=O)C3=O)cc1` (centres unmarked) [SDC-TRAP-0135, 3-(4-(3-(2,4-dihydroxy-5-isopropylphenyl)-5-(ethylcarbamoyl)-4H-1,2,4-triazol-4-yl)-N-methylbenzamido)propyl(2-(2,6-dioxopiperidin-3-yl)-1-oxoisoindolin-4-yl)carbamate], 9.67 µM.
On the same count and under the same terms, as for `CCNC(=O)c1nnc(-c2cc(C(C)C)c(O)cc2O)n1-c1ccc(C(=O)N2CCC(COC(=O)Nc3cccc4c3CN(C3CCC(=O)NC3=O)C4=O)CC2)cc1` (centres unmarked) [SDC-TRAP-0136, (1-(4-(3-(2,4-dihydroxy-5-isopropylphenyl)-5-(ethylcarbamoyl)-4H-1,2,4-triazol-4-yl)benzoyl)piperidin-4-yl)methyl (2-(2,6-dioxopiperidin-3-yl)-1-oxoisoindolin-4-yl)carbamate], the figure is above 5 µM; as for `CC(C)c1cc(-c2nnc(O)n2-c2ccc3c(ccn3CCC3CCN(C(=O)Cn4cc(F)c(=O)[nH]c4=O)CC3)c2)c(O)cc1O` [SDC-TRAP-0137, 1-(2-(4-(2-(5-(3-(2,4-dihydroxy-5-isopropylphenyl)-5-hydroxy-4H-1,2,4-triazol-4-yl)-1H-indol-1-yl)ethyl)piperidin-1-yl)-2-oxoethyl)-5-fluoropyrimidine-2,4(1H,3H)-dione], above 5 µM; as for `CC(C)c1cc(-c2nnc(O)n2-c2ccc(N3CCN(C(=O)N4CCC(n5cc(-c6cnc(N)c(O[C@H](C)c7c(Cl)ccc(F)c7Cl)c6)cn5)CC4)CC3)cc2)c(O)cc1O` [SDC-TRAP-0138, (R)-(4-(4-(6-amino-5-(1-(2,6-dichloro-3-fluorophenyl)ethoxy)pyridin-3-yl)-1H-pyrazol-1-yl)piperidin-1-yl)(4-(4-(3-(2,4-dihydroxy-5-isopropylphenyl)-5-hydroxy-4H-1,2,4-triazol-4-yl)phenyl)piperazin-1-yl)methanone], 0.707 µM.
Take `CCNC(=O)c1nnc(-c2cc(C(C)C)c(O)cc2O)n1-c1ccc(C(=O)N(C)CC(=O)N2CCC(n3cc(-c4cnc(N)c(O[C@H](C)c5c(Cl)ccc(F)c5Cl)c4)cn3)CC2)cc1` [SDC-TRAP-0139, (R)-4-(4-((2-(4-(4-(6-amino-5-(1-(2,6-dichloro-3-fluorophenyl)ethoxy)pyridin-3-yl)-1H-pyrazol-1-yl)piperidin-1-yl)-2-oxoethyl)(methyl)carbamoyl)phenyl)-5-(2,4-dihydroxy-5-isopropylphenyl)-N-ethyl-4H-1,2,4-triazole-3-carboxamide]: the IC50 was in the range of 1 to 2 µM.
The compound `CCNC(=O)c1nnc(-c2cc(C(C)C)c(O)cc2O)n1-c1ccc(C(=O)N2CCC(CCOC(=O)Nc3cccc4c3CN(C3CCC(=O)NC3=O)C4=O)CC2)cc1` (centres unmarked) [SDC-TRAP-0140, 2-(1-(4-(3-(2,4-dihydroxy-5-isopropylphenyl)-5-(ethylcarbamoyl)-4H-1,2,4-triazol-4-yl)benzoyl)piperidin-4-yl)ethyl(2-(2,6-dioxopiperidin-3-yl)-1-oxoisoindolin-4-yl)carbamate] returned an IC50 above 5 µM.
In turn, `CCNC(=O)c1nnc(-c2cc(C(C)C)c(O)cc2O)n1-c1ccc(C(=O)N(C)CC(=O)Nc2cccc3c2CN(C2CCC(=O)NC2=O)C3=O)cc1` (centres unmarked) [SDC-TRAP-0147, 5-(2,4-dihydroxy-5-isopropylphenyl)-4-(4-((2-((2-(2,6-dioxopiperidin-3-yl)-1-oxoisoindolin-4-yl)amino)-2-oxoethyl)(methyl)carbamoyl)phenyl)-N-ethyl-4H-1,2,4-triazole-3-carboxamide] registered an IC50 of 4.33 µM.
Same read-out and setting: as for `CCNC(=O)c1nnc(-c2cc(C(C)C)c(O)cc2O)n1-c1ccc(CN2CCC(C(=O)Nc3cccc4c3CN(C3CCC(=O)NC3=O)C4=O)CC2)cc1` (centres unmarked) [SDC-TRAP-0149, 1-(4-(3-(2,4-dihydroxy-5-isopropylphenyl)-5-(ethylcarbamoyl)-4H-1,2,4-triazol-4-yl)benzyl)-N-(2-(2,6-dioxopiperidin-3-yl)-1-oxoisoindolin-4-yl)piperidine-4-carboxamide], the figure is 1.69 µM; as for `CC(C)c1cc(-c2nnc(O)n2-c2ccc(CN3CCN(C(=O)O[C@H]4CC[C@@]5(C)C(=CC[C@@H]6[C@@H]5CC[C@]5(C)C(c7cccnc7)=CC[C@@H]65)C4)CC3)cc2)c(O)cc1O` [SDC-TRAP-0150, (3S,8R,9S,10R,13S,14S)-10,13-dimethyl-17-(pyridin-3-yl)-2,3,4,7,8,9,10,11,12,13,14,15-dodecahydro-1H-cyclopenta[a]phenanthren-3-yl 4-(4-(3-(2,4-dihydroxy-5-isopropylphenyl)-5-hydroxy-4H-1,2,4-triazol-4-yl)benzyl) piperazine-1-carboxylate], 1.41 µM.
For `CC(C)c1cc(-c2nnc(O)n2-c2ccc3c(ccn3CCOCCNC(=O)O[C@H]3CC[C@@]4(C)C(=CC[C@@H]5[C@@H]4CC[C@]4(C)C(c6cccnc6)=CC[C@@H]54)C3)c2)c(O)cc1O` [SDC-TRAP-0151, (3S,8R,9S,10R,13S,14S)-10,13-dimethyl-17-(pyridin-3-yl)-2,3,4,7,8,9,10,11,12,13,14,15-dodecahydro-1H-cyclopenta[a]phenanthren-3-yl (2-(2-(5-(3-(2,4-dihydroxy-5-isopropylphenyl)-5-hydroxy-4H-1,2,4-triazol-4-yl)-1H-indol-1-yl)ethoxy)ethyl)carbamate], the IC50 came out at 1.19 µM.
The compound `CC(C)c1cc(-c2nnc(O)n2-c2ccc(CC3CCN(C(=O)O[C@H]4CC[C@@]5(C)C(=CC[C@@H]6[C@@H]5CC[C@]5(C)C(c7cccnc7)=CC[C@@H]65)C4)CC3)cc2)c(O)cc1O` [SDC-TRAP-0153, (3S,8R,9S,10R,13S,14S)-10,13-dimethyl-17-(pyridin-3-yl)-2,3,4,7,8,9,10,11,12,13,14,15-dodecahydro-1H-cyclopenta[a]phenanthren-3-yl 4-(4-(3-(2,4-dihydroxy-5-isopropylphenyl)-5-hydroxy-4H-1,2,4-triazol-4-yl)benzyl) piperidine-1-carboxylate] yielded an IC50 of 6.34 µM.
In turn, `CC(C)c1cc(-c2nnc(O)n2-c2ccc3c(c2)cc(CN2CCC(COC(=O)Nc4cccc5c4CN(C4CCC(=O)NC4=O)C5=O)CC2)n3C)c(O)cc1O` (centres unmarked) [SDC-TRAP-0155, (1-((5-(3-(2,4-dihydroxy-5-isopropylphenyl)-5-hydroxy-4H-1,2,4-triazol-4-yl)-1-methyl-1H-indol-2-yl)methyl)piperidin-4-yl)methyl (2-(2,6-dioxopiperidin-3-yl)-1-oxoisoindolin-4-yl)carbamate] gave an IC50 of 1.19 µM.

In general, IC50 refers to the concentration at which inhibition is half-maximal.
